Measurements: article PMC9917184, “Synthesis and Biological Evaluation of Potential Oncoimmunomodulator Agents” (International Journal of Molecular Sciences, 2023)
Like-named read-outs stand apart in the source and are kept apart here.

How the values were obtained:
A-549 = A-549 cell viability in co-culture with Jurkat T cells (flow cytometry count); format: cell-based, human; conditions: 24 h; for viability at 100 µM: Homo sapiens, A549, A-549/Jurkat T co-culture, IFN-γ stimulated, read-out: percentage of living A-549 cells relative to non-treated co-cultures; for inhibition rate of A-549 cell viability: co-cultured with Jurkat T cells, 100 μM
Description: (§1) The effect of the synthesized compounds on tumor cell proliferation in the presence of PD-1-expressing Jurkat T cells was also studied. This assay was carried out, as in the previous experiments, in the HT29, MCF7, and A549 cell lines (see Table 4). Interferon γ-stimulated cancer cells were treated for 24 h with the compounds at 100 μM in presence of Jurkat T cells. Then, cells were counted using flow cytometry. The percentage of living cells relative to non-treated co-cultures (control) was established for both cancer and immune cells in every co-culture.
(§2) To study the effect of the compounds on the cell viability in co-culture with Jurkat T cells or THP-1 cells, 10^5 or 2 × 10^5 of the corresponding cancer cells line per well were seeded and incubated for 24 h, then the medium was changed by one cell culture medium supplemented with IFN-γ (10 ng/mL; human, Invitrogen®) and containing 5 × 10^5 or 10^5 Jurkat T cells or THP-1, respectively, per well and 100 µM of the corresponding compound or DMSO for the […] control. After 24 h/48 h of incubation, supernatants were collected to determine Jurkat T or THP-1 living cells, and on the other hand, corresponding cancer cells were collected with trypsin. Both types of suspension cells were fixed with 4% in PBS paraformaldehyde and counted by flow cytometry.

Jurkat T cells = experiment: Jurkat T cell viability in co-culture with cancer cells (flow cytometry count); format: cell-based; conditions: Homo sapiens, 24 h, read-out: percentage of living Jurkat cells relative to non-treated co-cultures
Description: as §1, §2

PD-L1 = PD-L1 (Homo sapiens, UniProt Q9NZQ7); experiment: Total PD-L1 relative quantification by flow cytometry in cancer cell lines; format: cell-based; parameters: Alexa Fluor® 647 Rabbit monoclonal Anti-PD-L1 (ab215251); endogenous in cells; host or cells: HT-29; conditions: 24 h, total PD-L1 relative to negative control (DMSO)
Sequence of PD-L1 (Q9NZQ7 19-290): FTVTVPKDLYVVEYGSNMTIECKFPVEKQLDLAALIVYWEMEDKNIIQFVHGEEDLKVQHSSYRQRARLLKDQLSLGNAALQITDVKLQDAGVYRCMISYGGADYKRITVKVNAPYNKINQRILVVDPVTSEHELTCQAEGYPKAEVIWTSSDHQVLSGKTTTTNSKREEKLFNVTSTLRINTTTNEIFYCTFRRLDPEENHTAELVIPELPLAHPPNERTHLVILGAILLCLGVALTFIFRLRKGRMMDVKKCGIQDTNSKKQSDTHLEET
Description: (§3) The effect of these triazole derivates on c-Myc and PD-L1 was measured in three different cancer cell lines (HT-29, MCF-7, A-549) by flow cytometry. Thus, cells were incubated for 24 h with the corresponding compound at a concentration of 100 μM. Dimethyl sulfoxide (DMSO)-treated cells were used as the negative control, and a PD-L1 inhibitor, BMS-8 [29, 31], was used as a reference control. After permeabilization and fixation, cells were treated with anti-PD-L1 conjugated to AlexaFluor®647 and anti-c-Myc conjugated to fluorescein to determine the amount of both targets related to the negative control. Table 1 show the results in terms of the percentage of the detected target in relation to the negative control. This assay was carried out on cancer cell lines HT-29, MCF-7, and A-549.
(§4) To study the effect of the compounds on every biological target in cancer cell lines, the compounds were used at a 100 µM dose.
(§5) For the assay, 10^5 cells per well were incubated for 24 h with the corresponding dose of the tested compound in a total volume of 500 μL of their growth media.
(§6) To detect total PD-L1 and c-Myc, after the cell treatments, they were collected and fixed with 4% in PBS paraformaldehyde. After fixation, a treatment with 0,5% in PBS Triton™ X-100 was performed, and finally, cells were stained with FITC Mouse monoclonal Anti-c-Myc (ab223913) and Alexa Fluor® 647 Rabbit monoclonal Anti-PD-L1 (ab215251).

c-Myc = experiment: Total c-Myc relative quantification by flow cytometry in cancer cell lines; format: cell-based, human; conditions: 24 h
Description: as §3, §4, §5, §6

HT-29 = HT-29 cell viability in co-culture with Jurkat T cells (flow cytometry count); format: cell-based, human; conditions: 24 h; for viability at 100 µM: Homo sapiens, HT-29/Jurkat T co-culture, IFN-γ stimulated, read-out: percentage of living HT-29 cells relative to non-treated co-cultures
Description: as §1, §2

membrane PD-L1 = molecular target: T1, membrane PD-L1 (Homo sapiens, UniProt Q9NZQ7); experiment: Membrane PD-L1 relative quantification by flow cytometry in cancer cells co-cultured with Jurkat T cells; format: cell-based; conditions: Jurkat, 24 h; for remaining activity at 100 µM: relative to non-treated co-cultures, read-out: % PDL1 (membrane)
T1 construct: Alexa Fluor® 647 Rabbit monoclonal Anti-PD-L1 (ab215251); endogenous in cells; host or cells: HT-29, MCF-7, A-549 (A17: MCF-7 only; A14: IFN-gamma-stimulated cancer cells co-cultured with Jurkat T cells)
T1 sequence (Q9NZQ7 19-290): as above
Description: (§7) We determined by flow cytometry the effect of these compounds on the expression of membrane PD-L1 in cancer cells when they were co-cultured with immune cells. Thus, interferon γ-stimulated cancer cells were treated for 24 h with the compounds at 100 μM in presence of Jurkat T cells. Then, cells were fixed and treated with anti-PD-L1 conjugated to AlexaFluor®647. We took advantage of the versatility of flow cytometry to simultaneously measure the expression of membrane VEGFR-2 by using anti-VEGFR-2 conjugated to fluorescein.
(§8) To study the effect of the compounds on every biological target in co-cultured cancer cell lines, the compounds were incubated for 24h as described before.
(§9) To detect membrane PD-L1 and VEGFR-2, after the cell treatments, they were collected, fixed with 4% in PBS paraformaldehyde, and stained with FITC Mouse monoclonal Anti-Human VEGFR-2 (ab184903) and Alexa Fluor® 647 Rabbit monoclonal Anti-PD-L1 (ab215251).

MCF-7 = MCF-7 cell viability in co-culture with Jurkat T cells (flow cytometry count); format: cell-based, human; conditions: Homo sapiens, MCF7, MCF-7/Jurkat T co-culture, IFN-γ stimulated, 24 h, read-out: percentage of living MCF-7 cells relative to non-treated co-cultures
Description: as §1, §2

membrane VEGFR-2 = experiment: Membrane VEGFR-2 relative quantification by flow cytometry in cancer cells co-cultured with Jurkat T cells; format: cell-based, human; conditions: 100 μM, 24 h, relative to non-treated co-cultures
Description: as §7, §8, §9

[1] = A-549, 100 µM, relative to negative control (DMSO)
[2] = HT-29, 100 µM, detected target relative to negative control (DMSO)
[3] = MCF-7, 100 µM, relative to negative control (DMSO)
[4] = A549 co-cultured with Jurkat T cells
[5] = HT29 co-cultured with Jurkat T cells
[6] = MCF7 co-cultured with Jurkat T cells

remaining activity at 100 µM (PD-L1; A549, A-549, 100 µM) [%]	remaining activity at 100 µM (PD-L1; HT-29, 100 µM) [%]	remaining activity at 100 µM (PD-L1; MCF7, MCF-7, 100 µM) [%]	remaining activity at 100 µM (membrane PD-L1; [4]) [%]	remaining activity at 100 µM (membrane PD-L1; [5]) [%]	remaining activity at 100 µM (membrane PD-L1; [6]) [%]	Structure (SMILES)	viability at 100 µM (A-549) [%]	inhibition rate of A-549 cell viability (A-549)	viability at 100 µM (Jurkat T cells; A-549/Jurkat T co-culture) [%]	viability at 100 µM (Jurkat T cells; HT-29/Jurkat T co-culture) [%]	viability at 100 µM (Jurkat T cells; MCF-7/Jurkat T co-culture) [%]	% c-Myc (c-Myc; [1]) [%]	% c-Myc (c-Myc; [2]) [%]	% c-Myc (c-Myc; [3]) [%]	viability at 100 µM (HT-29) [%]	viability at 100 µM (MCF-7) [%]	%VEGFR2 (membrane) (membrane VEGFR-2; [4]) [%]	%VEGFR2 (membrane) (membrane VEGFR-2; [5]) [%]	%VEGFR2 (membrane) (membrane VEGFR-2; [6]) [%]	also measured
55 ± 8	111 ± 8	237 ± 19	80 ± 3	54 ± 3	89 ± 3	OCCc1ccc(CCn2cc(-c3ccc(Br)cc3)nn2)cc1 [Compound 4, 2-(4-(2-(4-(4-bromophenyl)-1H-1,2,3-triazol-1-yl)ethyl)phenyl)ethan-1-ol]	79 ± 5	around 30%	122 ± 11	145 ± 9	218 ± 69	95 ± 2	108 ± 8	91 ± 8	115 ± 14	87 ± 6	99 ± 4	94 ± 3	121 ± 19	inhibition rate of HT-29 cell viability (HT-29; co-cultured with Jurkat T cells, 100 μM): not active; inhibition at 100 µM (membrane PD-L1; HT-29 co-cultured with Jurkat T cells, read-out: membrane PD-L1 inhibition rate): 40 to 50%
62 ± 14	82 ± 2	114 ± 9	84 ± 6	126 ± 7	48 ± 7	COc1ccc(-c2cn(CCc3ccc(CCO)cc3)nn2)cc1 [Compound 10, 2-(4-(2-(4-(4-methoxyphenyl)-1H-1,2,3-triazol-1-yl)ethyl)phenyl)ethan-1-ol]	103 ± 4	no activity	100 ± 4	120 ± 23	148 ± 20	126 ± 2	83 ± 8	91 ± 6	145 ± 16	94 ± 2	107 ± 1	94 ± 6	105 ± 3	
